# Assays:
# CD206 CRD4 = molecular target: T1, CD206 CRD4 (Homo sapiens, UniProt P22897); assay: NanoDSF thermal shift binding study, CD206 CRD4; details: for Kd: CD206 CRD4, calculated from EC50 with KD=(1−fuo)×(EC50−[P]/2); for EC50: CD206 CRD4, 12 μM protein, unfolded fraction evaluated at 53 °C, Hill fit, read-out: EC50 (unfolded fraction vs TS concentration)
# T1 construct: Carbohydrate recognition domain 4 of CD206; made in house
# T1 sequence (P22897 655-778 limits assumed): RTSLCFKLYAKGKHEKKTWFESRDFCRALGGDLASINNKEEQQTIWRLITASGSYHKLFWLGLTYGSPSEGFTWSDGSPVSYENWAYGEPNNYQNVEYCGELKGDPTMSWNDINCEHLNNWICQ
# Experimental: (§1) Thermal shift experiments were performed by using a Prometheus NanoDSF instrument (NanoTemper, Munich, Germany). […] Each ligand concentration was measured in triplicate. Samples were subjected to a controlled temperature increase from 20 to 85 °C at a rate of 1.5 °C per minute. Protein unfolding was monitored by measuring the fluorescence emission ratio at 350 and 330 nm. […] Data were analyzed according to the vertical slice method developed by Bai et al. The unfolded fraction was plotted against the ligand concentration, and EC50 values were determined by fitting the data to the Hill equation using GraphPad Prism 8.0.1. K D values were calculated using eq based on the unfolded fraction in the absence of ligand (f uo) and the total protein concentration ([P]). Associated errors were determined according to the standard error propagation rules. KD=(1−fuo)×(EC50−[P]/2) 1 […]
# (§2) In this study, NanoDSF was used to investigate the binding affinity of unconjugated monovalent TSs ManN3 and Man3N3, as well as the trivalent TSs (Man)3N3 and (Man3)3N3 for isolated CRDs of CD206 and CD209. Utilization of isolated CRDs instead of the complete tetrameric and octameric receptors allowed an investigation of the affinity without the potential occurrence of avidity effects taking place on the receptor side. […] The observed binding affinities to the isolated CRDs were in the low millimolar range, with all ligands showing stabilizing effects. […] In the solid-phase assay, the biotinylated CRDs were immobilized on streptavidin-coated plates in a defined orientation, likely enhancing the effective presentation of the binding site. In contrast, NanoDSF measurements were conducted with isolated, solubilized monomeric CRDs without surface- or orientation-related effects. Additionally, steric effects and interactions arising from the linker moiety may also impact binding affinity.
# 3 NanoDSF study for binding of mono- and trivalent TSs ManN3, Man3N3, (Man)3N3, and (Man3)3N3 to the CRDs of CD206 and CD209. (A) Affinity of mono- and trivalent TSs for CRD4 of CD206. (B) Affinity of mono- and trivalent TSs for CRD of CD209. The unfolded fraction of each CRD at different TS concentrations was determined at 53 °C for CD206 and at 63 °C for CD209. The unfolded fraction was plotted against TS concentration, and EC50 values were determined using GraphPad Prism 8.0.1. The respective K D values were calculated from EC50, as described in section , and are given for each case. […]
# 6 NanoDSF binding study for mono- and trivalent TSs
# 6.1 Recombinant protein expression and purification.
# 6.1.1 Carbohydrate recognition domain 4 of CD206
# CRD 4 of CD206 was expressed as described previously.50 Briefly, a pT5T expression vector containing CRD4 of CD206 was transformed into competent Escherichia coli (E. coli) BL21 (DE3) cells. The cells were grown in LB medium containing 100 µg/mL ampicillin at 37 °C and 160 rpm until they reached an optical density (OD₆₀₀) of approximately 0.7. Overexpression was induced by adding 0.4 mM Isopropyl-β-D-thiogalactopyranoside (IPTG) for approximately 2.5 hours at 37 °C. Cells were harvested by centrifugation (10.000 × g at 4 °C for 15 minutes) and resuspended in cold buffer A (10 mM Tris-Cl, pH 7.8). Lysis was performed by thoroughly sonicating the cell pellets. Cell debris and inclusion bodies were collected by centrifugation (18,000 × g at 4 °C for 15 minutes), and the supernatant was discarded.
# The inclusion bodies were then solubilized in 100 mL of denaturing buffer B (6 M guanidine-HCl, 100 mM Tris-Cl, pH 7.0). After adding 2-mercaptoethanol (10 µL), the suspension was incubated at 4 °C on ice for 30 minutes. Insoluble impurities were removed by centrifugation (18,000 × g at 4 °C for 30 minutes). The supernatant was refolded by three-step dialysis against 2 L of buffer C (0.5 M NaCl, 25 mM Tris-Cl, pH 7.8, 25 mM CaCl₂) at 4 °C overnight. After centrifugation (18,000 × g at 4 °C for […]
# CD209 CRD = molecular target: T2, CD209 CRD (Homo sapiens, UniProt Q9NNX6); assay: NanoDSF thermal shift binding study, CD209 CRD; details: for Kd: calculated from EC50 with KD=(1−fuo)×(EC50−[P]/2); for EC50: 12 μM protein, unfolded fraction evaluated at 63 °C, Hill fit, read-out: EC50 (unfolded fraction vs TS concentration)
# T2 construct: Carbohydrate recognition domain of CD209; inferred from HisTrap/imidazole purification; made in house
# T2 sequence (Q9NNX6 263-378 limits assumed): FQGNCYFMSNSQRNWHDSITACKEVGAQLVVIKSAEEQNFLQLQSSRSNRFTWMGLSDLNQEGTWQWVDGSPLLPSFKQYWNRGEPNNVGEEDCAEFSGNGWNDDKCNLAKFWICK
# Experimental: as §1, §2
# 3 NanoDSF study for binding of mono- and trivalent TSs ManN3, Man3N3, (Man)3N3, and (Man3)3N3 to the CRDs of CD206 and CD209. (A) Affinity of mono- and trivalent TSs for CRD4 of CD206. (B) Affinity of mono- and trivalent TSs for CRD of CD209. The unfolded fraction of each CRD at different TS concentrations was determined at 53 °C for CD206 and at 63 °C for CD209. The unfolded fraction was plotted against TS concentration, and EC50 values were determined using GraphPad Prism 8.0.1. The respective K D values were calculated from EC50, as described in section , and are given for each case.
# D (150 mM NaCl, 25 mM Tris-Cl, pH 7.8, 25 mM CaCl₂), the bound protein was eluted with buffer E (150 mM NaCl, 25 mM Tris-Cl, pH 7.8, 2.5 mM EDTA).
# 6.1.2 Carbohydrate recognition domain of CD209
# The recombinant CRD of CD209 was expressed as described previously.55 Briefly, a pET-30 expression vector containing the CRD of CD209 was transformed into competent Escherichia coli (E. coli) BL21 (DE3) cells. The cells were grown in LB medium containing 100 µg/mL kanamycin at 37 °C and 160 rpm until they reached an optical density (OD₆₀₀) of approximately 0.7. Overexpression was induced by adding 0.5 mM IPTG for approximately 3 hours at 37 °C. Cells were harvested by centrifugation (10.000 × g at 4 °C for 15 minutes) and resuspended in cold buffer A (25 mM Tris-Cl, 150 mM NaCl, pH 8) supplemented with lysozyme, one tablet of protease inhibitor (cOmplete ™, Roche), and DNase I. Lysis was performed by thoroughly sonicating the resuspended cell pellets. Cell debris and inclusion bodies were collected by centrifugation (20,000 × g at 4 °C for 1 hour), and the supernatant was discarded. The inclusion bodies were resuspended in buffer A supplemented with 2 M urea and 1% Triton X-100. After a second centrifugation step, the inclusion bodies were solubilized in buffer A supplemented with 6 M guanidine hydrochloride and 0.01 % 2-mercaptoethanol. Insoluble impurities were removed by centrifugation (20.000 × g at 4 °C for 1 hour). The resulting supernatant was dialyzed […]
# [1] = system: tetrameric extracellular domains (ECDs) of CD209; design: method as in Li et al.; details: TS presented in a trivalent manner, SPR, CD209 ECD; ref Li et al.; read-out: IC50 (binding affinity), trivalent presentation; cited from earlier work
Compound,Kd (CD206 CRD4) [mM],Kd (CD209 CRD) [mM],EC50 (CD206 CRD4) [mM],EC50 (CD209 CRD) [mM],IC50 [1] [mM]
[N-]=[N+]=NCCOCCOCCOCCC(=O)NC(COCCC(=O)NCCOCCOCCOCCn1cc(CO[C@H]2O[C@H](CO[C@H]3O[C@H](CO)[C@@H](O)[C@H](O)[C@@H]3O)[C@@H](O)[C@H](O[C@H]3O[C@H](CO)[C@@H](O)[C@H](O)[C@@H]3O)[C@@H]2O)nn1)(COCCC(=O)NCCOCCOCCOCCn1cc(CO[C@H]2O[C@H](CO[C@H]3O[C@H](CO)[C@@H](O)[C@H](O)[C@@H]3O)[C@@H](O)[C@H](O[C@H]3O[C@H](CO)[C@@H](O)[C@H](O)[C@@H]3O)[C@@H]2O)nn1)COCCC(=O)NCCOCCOCCOCCn1cc(CO[C@H]2O[C@H](CO[C@H]3O[C@H](CO)[C@@H](O)[C@H](O)[C@@H]3O)[C@@H](O)[C@H](O[C@H]3O[C@H](CO)[C@@H](O)[C@H](O)[C@@H]3O)[C@@H]2O)nn1 [(Man3)3N3],3.1,> 26.6,,,
[N-]=[N+]=NCCOCCOCCOCCC(=O)NC(COCCC(=O)NCCOCCOCCOCCn1cc(CO[C@H]2O[C@H](CO)[C@@H](O)[C@H](O)[C@@H]2O)nn1)(COCCC(=O)NCCOCCOCCOCCn1cc(CO[C@H]2O[C@H](CO)[C@@H](O)[C@H](O)[C@@H]2O)nn1)COCCC(=O)NCCOCCOCCOCCn1cc(CO[C@H]2O[C@H](CO)[C@@H](O)[C@H](O)[C@@H]2O)nn1 [(Man)3N3],6.8,10.3,,,
trimannose,,,,,0.0024

# More lines, main results first:
Kd (CD206 CRD4) [mM],Kd (CD209 CRD) [mM],EC50 (CD206 CRD4) [mM],EC50 (CD209 CRD) [mM],Compound,IC50 [1] [mM]
6.9,7.2,14.9 ± 0.97,16.4 ± 1.9,[N-]=[N+]=NCCOCCOCCOCCn1cc(CO[C@H]2O[C@H](CO[C@H]3O[C@H](CO)[C@@H](O)[C@H](O)[C@@H]3O)[C@@H](O)[C@H](O[C@H]3O[C@H](CO)[C@@H](O)[C@H](O)[C@@H]3O)[C@@H]2O)nn1 [Man3N3],
1.3,> 36.3,3.1 ± 0.6,> 79.8,[N-]=[N+]=NCCOCCOCCOCCn1cc(CO[C@H]2O[C@H](CO)[C@@H](O)[C@H](O)[C@@H]2O)nn1 [ManN3],
